Data: ChEMBL document CHEMBL3885861, “Open TG-GATES”

Species on record: Rattus norvegicus
Experiment: Open TG-GATES - Regimen: Daily Repeat
Assay type: toxicity, organism-based, Sprague-Dawley
Parameters: regimen Daily Repeat, gender Male, age 6 weeks
Settings: in vivo, po, route gavage; for A/G / ALP / ALT / AST / BUN / CRE / Ca / Cl / DBIL / GLC / IP / K / LDH / Na / PL / RALB / TBIL / TC / TG / TP / gamma-GTP: tissue Plasma; for APTT / Bas / Eos / Fbg / Hb / Ht / Lym / MCH / MCHC / MCV / Mono / Neu / PT / Plat / RBC / Ret / WBC: tissue Blood; for KIDNEY_L / KIDNEY_R / KIDNEY_TOTAL: tissue Kidney; for LIVER: tissue Liver
[1] = 0 mg/kg, […], dose level Control, time 28 day
[2] = 1 mg/kg, 72 h, dose level Low, time 3 day
[3] = 1 mg/kg, […], dose level Low, time 7 day
[4] = 1 mg/kg, […], dose level Low, time 14 day
[5] = 1 mg/kg, […], dose level Low, time 28 day

COc1ccc2c(c1)c(CC(=O)O)c(C)n2C(=O)c1ccc(Cl)cc1 [INDOMETHACIN]
A/G [1]: 1.9 | ALP [1]: 622.6 IU/L | ALT [1]: 27.6 IU/L | AST [1]: 56.2 IU/L | BUN [1]: 18.8 mg/dL | CRE [1]: 0.7 mg/dL | Ca [1]: 10.7 mg/dL | Cl [1]: 105.2 meq/L | DBIL [1]: 0.018 mg/dL | GLC [1]: 206.4 mg/dL | IP [1]: 7.5 mg/dL | K [1]: 4.1 meq/L | LDH [1]: 62.4 IU/L | Na [1]: 139.2 meq/L | PL [1]: 163.2 mg/dL | RALB [1]: 4.3 g/dL | TBIL [1]: 0.3 mg/dL | TC [1]: 79.6 mg/dL | TG [1]: 181.2 mg/dL | TP [1]: 6.6 g/dL | gamma-GTP [1]: 1.8 IU/L | TERMINAL_BW [2]: 239.1 g | APTT [2]: 16.8 s | Bas [2]: 0% | Eos [2]: 0.4% | Fbg [2]: 230.8 mg/dL | Hb [2]: 13.6 g/dL | Ht [2]: 40.7% | Lym [2]: 79% | MCH [2]: 21.7 pg | MCHC [2]: 33.5% | MCV [2]: 65 fL | Mono [2]: 7.6% | Neu [2]: 12.8% | PT [2]: 10.9 s | Plat [2]: 102.8 x10_4/uL | RBC [2]: 626.4 x10_4/ul | Ret [2]: 7% | WBC [2]: 89 x10_2/uL | KIDNEY_L [2]: 1.1 g | KIDNEY_R [2]: 1.1 g | KIDNEY_TOTAL [2]: 2.2 g | LIVER [2]: 11.8 g | A/G [2]: 1.9 | ALP [2]: 1210.2 IU/L | ALT [2]: 35.2 IU/L | AST [2]: 64.4 IU/L | BUN [2]: 16.8 mg/dL | CRE [2]: 0.6 mg/dL | Ca [2]: 10.6 mg/dL | Cl [2]: 105.8 meq/L | DBIL [2]: 0.032 mg/dL | GLC [2]: 196.6 mg/dL | IP [2]: 7.9 mg/dL | K [2]: 4.9 meq/L | LDH [2]: 91.4 IU/L | Na [2]: 138.8 meq/L | PL [2]: 165.2 mg/dL | RALB [2]: 3.9 g/dL | TBIL [2]: 0.3 mg/dL | TC [2]: 86 mg/dL | TG [2]: 108 mg/dL | TP [2]: 5.9 g/dL | gamma-GTP [2]: 1.2 IU/L | TERMINAL_BW [3]: 272.4 g | TERMINAL_BW [4]: 337.2 g | TERMINAL_BW [5]: 425.7 g | APTT [3]: 16.3 s | Bas [3]: 0% | Eos [3]: 0.6% | Fbg [3]: 240.2 mg/dL | Hb [3]: 13.8 g/dL | Ht [3]: 41.9% | Lym [3]: 82.8% | MCH [3]: 21.1 pg | MCHC [3]: 33.1% | MCV [3]: 63.9 fL | Mono [3]: 7.2% | Neu [3]: 9.2% | PT [3]: 11.7 s | Plat [3]: 121.9 x10_4/uL | RBC [3]: 656.8 x10_4/ul | Ret [3]: 7.2% | WBC [3]: 124.3 x10_2/uL | APTT [4]: 16.5 s | Bas [4]: 0% | Eos [4]: 0.8% | Fbg [4]: 232.4 mg/dL | Hb [4]: 14.4 g/dL | Ht [4]: 43.4% | Lym [4]: 85.4% | MCH [4]: 19.8 pg | MCHC [4]: 33.1% | MCV [4]: 59.8 fL | Mono [4]: 4.8% | Neu [4]: 9% | PT [4]: 11.6 s | Plat [4]: 119.2 x10_4/uL | RBC [4]: 726.6 x10_4/ul | Ret [4]: 4.3% | WBC [4]: 140.8 x10_2/uL | APTT [5]: 16.4 s | Bas [5]: 0% | Eos [5]: 0.8% | Fbg [5]: 249.8 mg/dL | Hb [5]: 15.2 g/dL | Ht [5]: 45.7% | Lym [5]: 83.6% | MCH [5]: 19.1 pg | MCHC [5]: 33.2% | MCV [5]: 57.5 fL | Mono [5]: 5.6% | Neu [5]: 10.6% | PT [5]: 11.8 s | Plat [5]: 113.7 x10_4/uL | RBC [5]: 795.8 x10_4/ul | Ret [5]: 2.7% | WBC [5]: 149.8 x10_2/uL | KIDNEY_L [3]: 1.1 g | KIDNEY_R [3]: 1.1 g | KIDNEY_TOTAL [3]: 2.3 g | KIDNEY_L [4]: 1.3 g | KIDNEY_R [4]: 1.3 g | KIDNEY_TOTAL [4]: 2.6 g | KIDNEY_L [5]: 1.4 g | KIDNEY_R [5]: 1.4 g | KIDNEY_TOTAL [5]: 2.8 g | LIVER [3]: 13.5 g | LIVER [4]: 16.3 g | LIVER [5]: 18.6 g | A/G [3]: 2.1 | ALP [3]: 892.6 IU/L | ALT [3]: 30.2 IU/L | AST [3]: 61.4 IU/L | BUN [3]: 20 mg/dL | CRE [3]: 0.5 mg/dL | Ca [3]: 11 mg/dL | Cl [3]: 105.6 meq/L | DBIL [3]: 0.006 mg/dL | GLC [3]: 193.2 mg/dL | IP [3]: 8.2 mg/dL | K [3]: 4.9 meq/L | LDH [3]: 89.2 IU/L | Na [3]: 139.4 meq/L | PL [3]: 156.6 mg/dL | RALB [3]: 4 g/dL | TBIL [3]: 0.4 mg/dL | TC [3]: 77.4 mg/dL | TG [3]: 149.6 mg/dL | TP [3]: 6 g/dL | gamma-GTP [3]: 1.4 IU/L
